How the values were obtained:
SH-SY5Y cells [1] = test: Intracellular GSH levels in SH-SY5Y cells, MCB assay; type: cell-based, human; conditions: 24 h, 2.5–10 μM
Method: Among the endogenous antioxidants in the central nervous system, glutathione (GSH) plays an important role to maintain the redox balance by directly interacting with ROS formed during the physiological metabolic processes. […] We therefore evaluated the ability of compounds 3a, 3b and 3e to modulate the intracellular GSH levels in SH-SY5Y cells, after 24 h of treatment using the fluorescent probe monochlorobimane (MCB).
(§1) Human neuronal SH-SY5Y cells were routinely grown in Dulbecco’s modified Eagle’s Medium supplemented with 10% fetal bovine serum, 2 mM L-glutamine, 50 U/mL penicillin and 50 µg/mL streptomycin at 37 °C in a humidified incubator with 5 % CO2.
SH-SY5Y cells were seeded in a black 96-well plate at 2 × 10^4 cells/well, incubated for 24 h and then treated with the compounds for 24 h. GSH levels were evaluated by using monochlorobimane, as previously described

SH-SY5Y cells [2] = test: ROS formation induced by t-BOOH in SH-SY5Y cells, H2DCF-DA probe; type: cell-based, human; parameters: key to Direct Antioxidant Activity in SH-SY5Y Cells (percentage inhibition of ROS formation induced by t-BOOH): In: inactive; conditions: for inhibition at 10 µM: Homo sapiens, SH-SY5Y, chronic treatment 24 h with compound 10 μM, then t-BOOH 100 μM for 30 min, read-out: Indirect Antioxidant Activity in SH-SY5Y Cells (percentage inhibition of ROS formation induced by t-BOOH); for Direct Antioxidant Activity in SH-SY5Y Cells (percentage inhibition of ROS formation induced by t-BOOH): simultaneous treatment 30 min, compound 10 µM and t-BOOH 100 μM
Method: In parallel, we evaluated the antioxidant activity of the compounds not associated with toxicity (Figure 5) against the ROS formation induced by t-BOOH in SH-SY5Y cells. To appraise the direct and indirect antioxidant activity, the SH-SY5Y cells were simultaneously treated for 30 min with 3a, 3b and 3e (10 µM) and t-BOOH (100 µM) or chronically treated for 24 h (the time necessary to activate the endogenous antioxidant system) with 3a, 3b and 3e (10 µM) and then exposed to t-BOOH (100 µM) for 30 min, respectively. Then, the intracellular ROS formation was detected by using the fluorescent probe 2′,7′-dichlorodihydrofluorescein diacetate (H2DCF-DA).
as §1
SH-SY5Y cells were seeded in a 96-well plate at 2 × 10^4 cells/well, incubated for 24 h, and then treated with compounds for 24 h before or during the treatment of 30 min with t-BOOH. ROS formation was evaluated by using the fluorescent probe H2DCF-DA, as previously described.

SH-SY5Y cells [3] = test: Toxicity in neuronal SH-SY5Y cells, MTT assay; type: cell-based; conditions: for toxic effects: 24 h, at 80 μM; for IC50: Homo sapiens, read-out: IC50 (concentration resulting in 50% inhibition of neuronal viability), 24 h, 2.5-80 μM
Method: […]. Human neuronal SH-SY5Y cells were routinely grown in Dulbecco’s modified Eagle’s Medium supplemented with 10% fetal bovine serum, 2 mM L-glutamine, 50 U/mL penicillin and 50 µg/mL streptomycin at 37 °C in a humidified incubator with 5 % CO2.
SH-SY5Y cells were seeded in a 96-well plate at 2 × 10^4 cells/well, incubated for 24 h and then treated with the compounds for 24 h. Cell viability, in terms of mitochondrial metabolic function, was evaluated by 3-(4,5-dimethylthiazol-2-yl)-2,5-diphenyltetrazolium bromide (MTT) test, as previously described.

SH-SY5Y cells [4] = test: Neuroprotective activity against Aβ42 oligomers in SH-SY5Y cells, MTT assay; type: cell-based, human; conditions: 3e 5 µM with OAβ42 10 µM, 4 h
Method: Given the best antioxidant profile of compound 3e we also evaluated its ability to protect the SH-SY5Y cells against the neurotoxicity elicited by Aβ42 peptide oligomers (OAβ42), soluble aggregates of Aβ peptides involved in the pathogenesis of AD.
as §1
Aβ42 peptide (AnaSpec, Fremont, CA, USA) was first dissolved in 1,1,1,3,3,3-hexafluoroisopropanol to 1 mg/mL, sonicated, incubated at room temperature for 24 h, and lyophilised to obtain an unaggregated Aβ42 peptide film that was solubilised with DMSO and stored at −20 °C until use. The aggregation of Aβ42 peptide into oligomers was performed as previously described. SH-SY5Y cells were seeded in a 96-well plate at 3 × 10^4 cells/well, incubated for 24 h, and treated with the compounds for 24 h. The cells were then treated for 4 h with 3e [5 μM] and OAβ1-42 [10 μM]. The neuroprotective activity, in terms of increase in intracellular MTT granules, was measured by MTT assay, as previously described.

eqBuChE = target: T1, eqBuChE (Equus caballus, UniProt P81908); test: BuChE inhibition, modified Ellman kinetic assay; type: biochemical
T1 construct: purified from equine serum; purchased Sigma-Aldrich; host or cells: equine serum (natural source)
Method: (§2) For in vitro evaluation of inhibition of EeAChE (EC3.1.1.7, type V-S, purified from Electrophorus electricus) and eqBuChE (EC 3.1.1.8, purified from equine serum, both from Sigma-Aldrich), the kinetic assay was performed according to the Ellman method modified using 96-well plates as previously described. […]. Progression curves were acquired using the Softmax PRO 5.0 software (Molecular Devices) from which the maximum hydrolysis velocity was calculated and the analysis performed with the Prism 5 software (GraphPad Inc., La Jolla, CA, USA). […]. The solvent had no detectable effect at the highest concentration used (0.2% v/v).

EeAChE = target: T2, EeAChE (Electrophorus electricus, UniProt O42275); test: AChE inhibition, modified Ellman kinetic assay; type: biochemical
T2 construct: purified from Electrophorus electricus; purchased Sigma-Aldrich type V-S; host or cells: Electrophorus electricus (natural source)
Method: as §2

T2 sequence (O42275 24-633): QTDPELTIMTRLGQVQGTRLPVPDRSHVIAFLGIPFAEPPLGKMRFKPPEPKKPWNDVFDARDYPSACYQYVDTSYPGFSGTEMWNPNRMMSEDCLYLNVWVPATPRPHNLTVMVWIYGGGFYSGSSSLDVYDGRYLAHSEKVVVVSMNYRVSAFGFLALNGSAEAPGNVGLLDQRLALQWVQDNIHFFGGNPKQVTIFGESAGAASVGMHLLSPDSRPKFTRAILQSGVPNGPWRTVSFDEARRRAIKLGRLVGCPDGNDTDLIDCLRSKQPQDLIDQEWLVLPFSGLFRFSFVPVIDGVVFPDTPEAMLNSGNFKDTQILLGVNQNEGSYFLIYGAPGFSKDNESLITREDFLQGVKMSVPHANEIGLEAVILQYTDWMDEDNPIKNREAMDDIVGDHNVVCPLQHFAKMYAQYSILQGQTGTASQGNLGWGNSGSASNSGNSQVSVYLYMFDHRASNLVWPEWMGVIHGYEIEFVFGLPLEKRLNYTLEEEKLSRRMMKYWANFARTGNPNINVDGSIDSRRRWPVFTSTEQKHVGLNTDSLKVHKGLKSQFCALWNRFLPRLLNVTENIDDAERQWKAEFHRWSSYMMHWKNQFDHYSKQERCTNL
T1 sequence (P81908 whole entry): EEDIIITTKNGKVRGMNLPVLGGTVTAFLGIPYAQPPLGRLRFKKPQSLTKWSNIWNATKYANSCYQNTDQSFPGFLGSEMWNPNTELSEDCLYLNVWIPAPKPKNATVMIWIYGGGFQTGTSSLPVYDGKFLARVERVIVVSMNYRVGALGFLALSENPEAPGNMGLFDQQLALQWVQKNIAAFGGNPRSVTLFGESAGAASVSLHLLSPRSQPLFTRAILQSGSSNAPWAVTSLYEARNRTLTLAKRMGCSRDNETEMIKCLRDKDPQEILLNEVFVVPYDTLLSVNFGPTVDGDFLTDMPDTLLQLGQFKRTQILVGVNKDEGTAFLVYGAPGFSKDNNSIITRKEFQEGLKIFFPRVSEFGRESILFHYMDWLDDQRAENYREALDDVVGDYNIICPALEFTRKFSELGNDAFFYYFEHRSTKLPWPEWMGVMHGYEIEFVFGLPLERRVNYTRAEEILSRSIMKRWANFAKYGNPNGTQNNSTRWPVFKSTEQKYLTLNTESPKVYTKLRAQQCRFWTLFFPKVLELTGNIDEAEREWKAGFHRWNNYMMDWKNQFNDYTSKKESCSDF

For `COc1cc(/C=N/NC(=O)c2cn(Cc3ccc(O)c(OC)c3)nn2)ccc1O` [3e, (E)-1-(4-Hydroxy-3-methoxybenzyl)-N’-(4-hydroxy-3-methoxybenzylidene)-1H-1,2,3-triazole-4-carbo-hydrazide], the “effect on intracellular GSH levels” value (SH-SY5Y cells [1]) was “increased the GSH levels”, the inhibition at 10 µM (SH-SY5Y cells [2]) was 35.2% and the toxic effects (SH-SY5Y cells [3]) was “did not show any toxic effects”. The IC50 (SH-SY5Y cells [3]) was over 80 µM, the “effect on loss of neuronal viability induced by OAβ42” value (SH-SY5Y cells [4]) was “significantly reduced the loss of neuronal viability” and the “ability to inhibit BuChE” value (eqBuChE) was “no relevant activity was detected”. The IC50 (EeAChE) was 26.3 µM and the inhibition at 30 µM (EeAChE; read-out: inhibition of the AChE activity at the screening concentration) was over 50%.
Work on `COc1cc(/C=N/NC(=O)c2cn(Cc3ccc(O)c(OC)c3)nn2)cc(OC)c1` [3d, (E)-N’-(3,5-Dimethoxybenzylidene)-1-(4-hydroxy-3-methoxybenzyl)-1H-1,2,3-triazole-4-carbohydrazide] yielded an IC50 (SH-SY5Y cells [3]) of 67.7 µM.
`COc1cc(Cn2cc(C(=O)N/N=C/c3cc(O)cc(O)c3)nn2)ccc1O` [3b, (E)-N’-(3,5-Dihydroxybenzylidene)-1-(4-hydroxy-3-methoxybenzyl)-1H-1,2,3-triazole-4-carbohydrazide] was tested, and the “effect on intracellular GSH levels” value (SH-SY5Y cells [1]) was “increased the GSH levels”, the inhibition at 10 µM (SH-SY5Y cells [2]) was 14.1% and the “Direct Antioxidant Activity in SH-SY5Y Cells (percentage inhibition of ROS formation induced by t-BOOH)” value (SH-SY5Y cells [2]) was “In”. For the same compound, the toxic effects (SH-SY5Y cells [3]) was “did not show any toxic effects” and the IC50 (SH-SY5Y cells [3]) was over 80 µM.
In the case of `COc1cc(Cn2cc(C(=O)N/N=C/c3cccc(F)c3)nn2)ccc1O` [3m, (E)-N’-(3-Fluorobenzylidene)-1-(4-hydroxy-3-methoxybenzyl)-1H-1,2,3-triazole-4-carbohydrazide], the IC50 (SH-SY5Y cells [3]) is reported as 42.9 µM.
In the case of `COc1cc(Cn2cc(C(=O)N/N=C/c3ccc(N4CCCCC4)cc3)nn2)ccc1O` [3g, (E)-1-(4-Hydroxy-3-methoxybenzyl)-N’-(4-(piperidin-1-yl)benzylidene)-1H-1,2,3-triazole-4-carbohydrazide], the IC50 (SH-SY5Y cells [3]) is reported as 10.3 µM.
In the case of `COc1cc(Cn2cc(C(=O)N/N=C/c3ccc(O)cc3)nn2)ccc1O` [3a, (E)-1-(4-Hydroxy-3-methoxybenzyl)-N’-(4-hydroxybenzylidene)-1H-1,2,3-triazole-4-carbohydrazide], the “effect on intracellular GSH levels” value (SH-SY5Y cells [1]) is reported as “increased the GSH levels”, the inhibition at 10 µM (SH-SY5Y cells [2]) is reported as 20.6% and the “Direct Antioxidant Activity in SH-SY5Y Cells (percentage inhibition of ROS formation induced by t-BOOH)” value (SH-SY5Y cells [2]) is reported as “In ^d”. The toxic effects (SH-SY5Y cells [3]) was “did not show any toxic effects” and the IC50 (SH-SY5Y cells [3]) was over 80 µM.
`COc1cc(Cn2cc(C(=O)N/N=C/c3cccc(Cl)c3)nn2)ccc1O` [3i, (E)-N’-(3-Chlorobenzylidene)-1-(4-hydroxy-3-methoxybenzyl)-1H-1,2,3-triazole-4-carbohydrazide] was tested, and the IC50 (SH-SY5Y cells [3]) was 10.4 µM.
`COc1cc(Cn2cc(C(=O)N/N=C/c3ccccc3Cl)nn2)ccc1O` [3j, (E)-N’-(2-Chlorobenzylidene)-1-(4-hydroxy-3-methoxybenzyl)-1H-1,2,3-triazole-4-carbohydrazide] showed an IC50 (SH-SY5Y cells [3]) of 28.3 µM.
Compound `COc1cc(Cn2cc(C(=O)N/N=C/c3ccc(Cl)cc3)nn2)ccc1O` [3h, (E)-N’-(4-Chlorobenzylidene)-1-(4-hydroxy-3-methoxybenzyl)-1H-1,2,3-triazole-4-carbohydrazide] has an IC50 (SH-SY5Y cells [3]) of 3.02 µM.
Work on `COc1ccc(/C=N/NC(=O)c2cn(Cc3ccc(O)c(OC)c3)nn2)cc1` [3c, (E)-1-(4-Hydroxy-3-methoxybenzyl)-N’-(4-methoxybenzylidene)-1H-1,2,3-triazole-4-carbohydrazide] yielded an IC50 (SH-SY5Y cells [3]) of 10.3 µM.
`COc1cc(Cn2cc(C(=O)N/N=C/c3ccccc3F)nn2)ccc1O` [3l, (E)-N’-(2-Fluorobenzylidene)-1-(4-hydroxy-3-methoxybenzyl)-1H-1,2,3-triazole-4-carbohydrazide] was tested, and the IC50 (SH-SY5Y cells [3]) was 68.5 µM.
For `COc1cc(Cn2cc(C(=O)N/N=C/c3ccc(F)cc3)nn2)ccc1O` [3k, (E)-N’-(4-Fluorobenzylidene)-1-(4-hydroxy-3-methoxybenzyl)-1H-1,2,3-triazole-4-carbohydrazide], the IC50 (SH-SY5Y cells [3]) was 3.62 µM.
In the case of `COc1cc(Cn2cc(C(=O)N/N=C/c3ccccc3)nn2)ccc1O` [3f, (E)-N’-Benzylidene-1-(4-hydroxy-3-methoxybenzyl)-1H-1,2,3-triazole-4-carbohydrazide], the IC50 (SH-SY5Y cells [3]) is reported as 63.8 µM.

Reference: PMC7397262, “Design, Synthesis and Biological Evaluation of Novel Triazole N-acylhydrazone Hybrids for Alzheimer’s Disease” (Molecules, 2020)
